Legend:
[1] = test system: PD-L1 mRNA; experiment: Activity evaluation A in human PD-L1 model mice (liver PD-L1 mRNA, qPCR); assay type: in vivo; settings: liver tissue, 10 mg/kg subcutaneous single dose, 14 days after treatment, vs PBS group
Experimental: (§1) Male human PD-L1 mice (purchased from Shanghai Model Organisms Center, Inc.) aged 6-8 weeks were randomized by weight, with 3 mice in each group. The groups were designated as a PBS group and various sample groups (dsRNA ligand conjugate of the present application).
(§2) Each sample group (dsRNA ligand conjugate of the present application) received a 1 mg/mL solution prepared in 1× PBS (pH 7.4).
Each mouse in the PBS group was subcutaneously injected with 10 mL/kg body weight of 1× PBS (pH 7.4), and each mouse in the sample groups (dsRNA ligand conjugate of the present application) was subcutaneously injected with the corresponding solution prepared as described above. The administration volume for each animal was 10 mL/kg body weight, and the administration dose was 10 mg/kg body weight. The day of the first dose was designated as day 0. All mice were sacrificed 14 days after the treatment, and the liver was collected and preserved in 1.5 mL sterile EP tubes containing 1 mL of animal tissue RNA stabilizing solution (Shanghai Beyotime Biotech Inc., Cat. No. R0118). After being preserved in a refrigerator at 4 °C for 24 h, the liver was transferred to -80 °C for storage. […]
For each reverse transcription reaction system, the cDNA-containing solution described above was taken as the qPCR template, and 20 µL of the qPCR reaction system was prepared using the reagent provided by the ChamQ SYBRqPCR Master Mix kit (Vazyme Biotech Co., Ltd., Cat. No. Q311). […] The qPCR reaction system was placed on a LightCycler 480 fluorescent quantitative PCR system and amplified using the three-step method. […] The real-time fluorescent quantitative PCR system separately acquired the dissolution curves of the target gene PD-L1 and the internal reference gene GAPDH in the PCR amplification products to give the Ct values of the target gene PD-L1 and the internal reference gene GAPDH. […]

[2] = test system: PD-L1 mRNA; experiment: Activity evaluation B in human PD-L1 model mice (liver PD-L1 mRNA, qPCR); assay type: in vivo; settings: liver tissue, 10 mg/kg subcutaneous; for PD-L1 expression inhibition rate (%), Day 14 after treatment, Avg: day 14, vs PBS group; for PD-L1 expression inhibition rate (%), Day 28 after treatment, Avg: day 28, vs PBS group
Experimental: as §1, §2
Each mouse in the PBS group was subcutaneously injected with 10 mL/kg body weight of 1× PBS (pH 7.4), and each mouse in the sample groups (dsRNA ligand conjugate of the present application) was subcutaneously injected with the corresponding solution prepared as described above. The administration volume for each animal was 10 mL/kg body weight, and the administration dose was 10 mg/kg body weight. The day of the first dose was designated as day 0. The liver was collected on days 14 and 28 after the treatment and preserved in 1.5 mL sterile EP tubes containing 1 mL of animal tissue RNA stabilizing solution (Shanghai Beyotime Biotech Inc., Cat. No. R0118). After being preserved in a refrigerator at 4 °C for 24 h, the liver was transferred to -80 °C for storage. Then, the liver tissue of each mouse was homogenized using a tissue homogenizer, and the total RNA of the liver tissue of each mouse was separately extracted using the TaKaRa MiniBEST Universal RNA Extraction Kit (TAKARA, Cat. No. 9767) according to the procedures for total RNA extraction in the instructions.
The procedures of reverse transcription to synthesize cDNA and fluorescence quantitative PCR, the primers, and the calculation of inhibition rate are shown in Experimental Example 3.

With “M01L01: dsRNA ligand conjugate; modified sense SEQ ID NO 31 with L01 ligand (GalNAc), antisense SEQ ID NO 32 (sense AGCAATATGACAATTGAATGA; antisense TCATTCAATTGTCATATTGCTAC; 2'-O-methyl and 2'-fluoro modified, full pattern not given here, GalNAc L01 on sense)” the “PD-L1 expression inhibition rate (%), Avg” value [1] was 59.3%.
With “M02L01: dsRNA ligand conjugate; modified sense SEQ ID NO 33 with L01 ligand (GalNAc), antisense SEQ ID NO 34 (sense ATTTACTGTCACGGTTCCCAA; antisense TTGGGAACCGTGACAGTAATAGC; 2'-O-methyl and 2'-fluoro modified, full pattern not given here, GalNAc L01 on sense)” the “PD-L1 expression inhibition rate (%), Avg” value [1] was 67.1%.
With “M03L01: dsRNA ligand conjugate; modified sense SEQ ID NO 35 with L01 ligand (GalNAc), antisense SEQ ID NO 36 (sense CTATTTATTTTGAGTCTGT; antisense ACAGACTCAAAATAAATAGGA; 2'-O-methyl and 2'-fluoro modified, full pattern not given here, GalNAc L01 on sense)” the “PD-L1 expression inhibition rate (%), Avg” value [1] was 78.2%.
For “M07L01: dsRNA ligand conjugate; modified sense SEQ ID NO 43 with L01 ligand (GalNAc), antisense SEQ ID NO 44 (sense AATGAAAGGACTCACTTGGTA; antisense TACCAAGTGAGTCCTTTCATTTG; 2'-O-methyl and 2'-fluoro modified, full pattern not given here, GalNAc L01 on sense)”, the “PD-L1 expression inhibition rate (%), Day 14 after treatment, Avg” value [2] was 49.0%.
For “M08L01: dsRNA ligand conjugate; modified sense SEQ ID NO 45 with L01 ligand (GalNAc), antisense SEQ ID NO 46 (sense GCTGCATGATCAGCTATGGTA; antisense TACCATAGCTGATCATGCAGCGG; 2'-O-methyl and 2'-fluoro modified, full pattern not given here, GalNAc L01 on sense)”, the “PD-L1 expression inhibition rate (%), Day 14 after treatment, Avg” value [2] was 26.7%.
For “M10L01: dsRNA ligand conjugate; modified sense SEQ ID NO 49 with L01 ligand (GalNAc), antisense SEQ ID NO 50 (sense ATTGGTCATCCCAGAACTACA; antisense TGTAGTTCTGGGATGACCAATTC; 2'-O-methyl and 2'-fluoro modified, full pattern not given here, GalNAc L01 on sense)”, the “PD-L1 expression inhibition rate (%), Day 14 after treatment, Avg” value [2] was 64.6% and the “PD-L1 expression inhibition rate (%), Day 28 after treatment, Avg” value [2] was 47.0%.
With “M11L01: dsRNA ligand conjugate; modified sense SEQ ID NO 51 with L01 ligand (GalNAc), antisense SEQ ID NO 52 (sense TATTTATTTTGAGTCTGTG; antisense CACAGACTCAAAATAAATAGG; 2'-O-methyl and 2'-fluoro modified, full pattern not given here, GalNAc L01 on sense)” the “PD-L1 expression inhibition rate (%), Day 14 after treatment, Avg” value [2] was 66.7% and the “PD-L1 expression inhibition rate (%), Day 28 after treatment, Avg” value [2] was 39.2%.
With “M12L01: dsRNA ligand conjugate; modified sense SEQ ID NO 55 with L01 ligand (GalNAc), antisense SEQ ID NO 56 (sense ATTTACTGTCACGGTTCCCAA; antisense TTGGGAACCGTGACAGTAAATGC; 2'-O-methyl and 2'-fluoro modified, full pattern not given here, GalNAc L01 on sense)” the “PD-L1 expression inhibition rate (%), Day 14 after treatment, Avg” value [2] was 78.6% and the “PD-L1 expression inhibition rate (%), Day 28 after treatment, Avg” value [2] was 50%.
